Each structure is given as a SMILES string.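 Protocol summary: plate cells (96-well), add compound at 5 concentrations, incubate 48 h, interpolate endpoints linearly. GI50 is the concentration that inhibits growth by half. The concentration for full growth arrest is given as TGI.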

Experimental findings from PubChem BioAssay (NCI) are described below.

What all share (experiment): growth of human tumour cells (NCI), 48 h
Experiment [1] relates to K-562 leukemia.
In experiment [2] the test system is OVCAR-8 ovarian.
Experiment [3] concerns TK-10 renal.
The test system of experiment [4] is SNB-75 CNS.
Experiment [5] concerns OVCAR-3 ovarian.
Experiment [6] deals with SK-MEL-2 melanoma.
Experiment [7] deals with RXF 393 renal.
For experiment [8], the system named is HCC-2998 colon.
Experiment [9] deals with A498 renal.

As for `O=S(=O)(NCn1ccc2ccccc21)c1ccccc1`, the TGI in [1], in experiment [2], in experiment [3], in experiment [4], in experiment [5] and in [6] was above 100 µM in each case. Also, the TGI in experiment [7], in experiment [8] and in experiment [9] was above 100 µM each time.
Turning to `O=c1ncccn1C1OC(CO)C(O)C1O` (stereo not drawn), the TGI in experiment [1], in experiment [2], in experiment [3], in experiment [4], in [6] and in experiment [7] was above 100 µM in each case. The TGI in experiment [8] and in experiment [9] was above 100 µM each time.
For `COC(=O)c1c2c(cc3c1CC1(Cc4cc5c(c(C(C)=O)c4C1)CCC5)C3)CCC2` (stereo not drawn), the TGI in experiment [1] is above 100 µM; in experiment [2] it was above 100 µM; in experiment [3], above 100 µM; in experiment [4], 74.2 µM; in experiment [5], above 100 µM; in experiment [7] it was 95.7 µM. Further, the TGI in experiment [8] is above 100 µM.
Regarding `Cc1cccc(C)c1NC(=O)CCc1nc(=S)[nH][nH]1`, the TGI in experiment [1], in [2], in [3], in [4], in [6] and in [7] was above 100 µM each time. The TGI in experiment [8] and in experiment [9] was above 100 µM throughout.
As to `CC(C)(C)C(=CS(=O)/N=C/c1ccccc1)C(C)(C)C` (stereo not drawn), the TGI is 86.4 µM in experiment [1]; above 100 µM in experiment [2]; above 100 µM in [3]; 63.2 µM in experiment [4]; above 100 µM in experiment [5]; 34.4 µM in experiment [6]. Further, the TGI in experiment [7] was 74.5 µM; in experiment [9], above 100 µM.
For the compound `COc1ccc(C(=O)C(CC2C(=O)NC(=O)NC2=O)c2ccc(OC)cc2)cc1` (stereo not drawn), the TGI in experiment [1], in experiment [2], in [3], in experiment [4], in [5] and in experiment [6] was above 100 µM throughout. The TGI in [7], in [8] and in experiment [9] was above 100 µM each time.
As for `Cc1cc(N(CCC#N)CCC#N)ccc1N=Nc1ccc(Br)cc1`, the TGI in experiment [1] was above 100 µM; in [2], above 96.1 µM; in [3] it was 39.8 µM; in experiment [5] it was above 87.2 µM; in [6], 48.9 µM; in experiment [7], 25.8 µM. The TGI is above 79.3 µM in experiment [8] and 30 µM in experiment [9].
Turning to `CC1CCSC(N(C(=O)N(C)c2ccccc2)c2ccccc2)=N1` (stereo not drawn), the TGI in experiment [1], in experiment [2], in experiment [3], in experiment [4], in experiment [5] and in experiment [6] was above 100 µM each time. Besides, the TGI in experiment [7], in experiment [8] and in [9] was above 100 µM each time.
On to `C1=C2CCCC3=Cc4ccccc4OC23Oc2ccccc21`, for which the GI50 in experiment [1] is 3.54 µM; in experiment [2] it was 4.04 µM; in experiment [3], 9.87 µM; in [4], 1.64 µM; in [5], 3.06 µM; in [6], 4.31 µM. The GI50 in experiment [7] is 2.85 µM; in [8], 10.3 µM; in experiment [9], 2.76 µM. Moreover, the TGI in experiment [1] was above 100 µM; in experiment [2], above 100 µM; in experiment [3] it was above 100 µM; in experiment [4], 5.84 µM; in [5] it was above 100 µM; in experiment [6] it was 25.6 µM. The TGI turned out to be 8.77 µM in [7], 60.7 µM in experiment [8] and 13.1 µM in [9].
Consider `c1ccc2c(c1)SCCCSCCSCCCS2`, for which the TGI in experiment [1], in experiment [2], in experiment [3], in experiment [4], in experiment [5] and in [8] was above 100 µM each time.
Regarding `CC(C)CCCC(C)[C@H]1CCC2[C@@H]3CCC4Nc5c(cnn5-c5ccccc5)C[C@]4(C)C3CC[C@@]21C` (stereo partly drawn), the TGI in experiment [1] was above 100 µM; in experiment [2], above 100 µM; in [3] it was above 100 µM; in [4], 25.7 µM; in experiment [5], above 100 µM; in experiment [6], above 100 µM. In addition, the TGI was 8.8 µM in [7], above 100 µM in experiment [8] and above 100 µM in [9].
With `CCOC(=O)CCn1ncc(Cl)c(Cl)c1=O`, the TGI in experiment [1] came out at 8.52 µM; in experiment [2] it was 11.9 µM; in [3] it was 34.5 µM; in [4] it was 29.6 µM; in [5], 10.8 µM; in experiment [6] it was 26.4 µM. Also, the TGI in experiment [7] came to 29 µM; in experiment [8] it was 10.4 µM; in experiment [9], 39.6 µM.
Take `CC(C)OP(=O)(OC(C)C)/C(N)=N/Nc1ccc([N+](=O)[O-])cc1`: the TGI in [1], in experiment [2], in experiment [3], in experiment [4], in [5] and in [6] was above 100 µM throughout. In addition, in [8], the TGI is above 100 µM.
Turning to `C[Si](C)(C)/C=C\CCO`, the TGI in experiment [1], in [2], in experiment [3], in [4], in experiment [5] and in experiment [6] was above 100 µM throughout. Further, the TGI in experiment [7], in experiment [8] and in [9] was above 100 µM throughout.
For `CC(=O)[O-].[Mn+3].[O-]c1ccccc1C=NCCNCCN=Cc1ccccc1[O-]`, the GI50 in experiment [1], in experiment [2], in [3], in experiment [4], in [5] and in [6] was above 100 µM each time. Besides, the GI50 in [7] was above 100 µM. Further, the TGI in experiment [1], in experiment [2], in [3], in experiment [4], in [5] and in experiment [6] was above 100 µM throughout. In [7], this compound yielded a TGI above 100 µM.
